Assay results taken from ChEMBL document CHEMBL4190368, “Synthesis and antimalarial evaluation of artesunate-polyamine and trioxolane-polyamine conjugates” (Eur J Med Chem, 2017).
pIC50: −log10 of the molar value.

Columns and labels:
[1] = test system: Plasmodium falciparum; test: Antiplasmodial activity against chloroquine sensitive Plasmodium falciparum NF54 assessed as reduction in [3H]-hypoxanthine incorporation incubated for 48 hrs by liquid scintillation counting method; assay type: functional, organism-based
[2] = test system: L6; test: Cytotoxicity in rat L6 cells assessed as reduction in cell viability incubated for 72 hrs by alamar blue dye based assay; conditions: L6, 72 h
[3] = test system: Plasmodium berghei; test: Antiplasmodial activity against GFP-transfected Plasmodium berghei ANKA infected in NMRI mouse assessed as reduction in parasitaemia at 50 mg/kg/day, ip for 4 days measured on 24 hrs after last dose by FACS analysis; assay type: functional; design: scale not given: the % may be the effect or the level left
[4] = test system: Plasmodium berghei; test: Antiplasmodial activity against GFP-transfected Plasmodium berghei ANKA infected in NMRI mouse assessed as mouse survival at 50 mg/kg/day, ip for 4 days measured up to 30 days; assay type: functional
[5] = test system: Plasmodium berghei; test: Antiplasmodial activity against GFP-transfected Plasmodium berghei ANKA infected in NMRI mouse assessed as reduction in parasitaemia at 100 mg/kg/day, po for 4 days measured on 24 hrs after last dose by FACS analysis; assay type: functional; design: scale not given: the % may be the effect or the level left
[6] = test system: Plasmodium berghei; test: Antiplasmodial activity against GFP-transfected Plasmodium berghei ANKA infected in NMRI mouse assessed as mouse survival at 50 mg/kg/day, po for 4 days measured up to 30 days; assay type: functional
[7] = Selectivity index, ratio of IC50 for rat L6 cells to IC50 for chloroquine sensitive Plasmodium falciparum NF54; assay type: toxicity; conditions: L6 cells versus Plasmodium falciparum NF54, read-out: Ratio IC50

Work on C[C@H]1[C@H](OC(=O)CCC(=O)NCCCN(CCCCN(CCCNC(=O)CCC(=O)O[C@@H]2O[C@@H]3O[C@@]4(C)CC[C@H]5[C@H](C)CC[C@@H]([C@H]2C)[C@@]35OO4)C(=O)OC(C)(C)C)C(=O)OC(C)(C)C)O[C@@H]2O[C@@]3(C)CC[C@H]4[C@H](C)CC[C@@H]1[C@@]24OO3 yielded a pIC50 [1] of 9.40, a pIC50 [2] of 4.92 and an Activity [3] of 99.8%. The Survival [4] was 30 days, the Activity [5] was 95.7% and the Survival [6] was 16 to 30 days. For the same molecule, the selectivity ratio [7] was 30200.
